Experimental data: patent US8445676B2, “Pyrrolotriazine kinase inhibitors” (Bristol-Myers Squibb Company, priority 2008, dated 2013)

Target: JAK2 (Homo sapiens, UniProt O60674)
Test: JAK2 Tyrosine Kinase Assay
Format: biochemical
Conditions: list of named compounds; read-out: IC50 in the JAK2 assay
Method: JAK2 Tyrosine Kinase Assay
The assays were performed in V-bottom 384-well plates. […] The reaction was initiated by the combination of JAK2 with substrates and test compounds. The reaction was incubated at room temperature for 60 min. and terminated by adding 45 μl of 35 mM EDTA to each sample. The reaction mixture was analyzed on the Caliper LabChip 3000 by electrophoretic separation of the fluorescent substrate and phosphorylated product. […] Compounds were dissolved at 10 mM in dimethylsulfoxide (DMSO) and evaluated at eleven concentrations, each in duplicate. IC50 values were derived by non-linear regression analysis

Chain of JAK2 (O60674 whole entry): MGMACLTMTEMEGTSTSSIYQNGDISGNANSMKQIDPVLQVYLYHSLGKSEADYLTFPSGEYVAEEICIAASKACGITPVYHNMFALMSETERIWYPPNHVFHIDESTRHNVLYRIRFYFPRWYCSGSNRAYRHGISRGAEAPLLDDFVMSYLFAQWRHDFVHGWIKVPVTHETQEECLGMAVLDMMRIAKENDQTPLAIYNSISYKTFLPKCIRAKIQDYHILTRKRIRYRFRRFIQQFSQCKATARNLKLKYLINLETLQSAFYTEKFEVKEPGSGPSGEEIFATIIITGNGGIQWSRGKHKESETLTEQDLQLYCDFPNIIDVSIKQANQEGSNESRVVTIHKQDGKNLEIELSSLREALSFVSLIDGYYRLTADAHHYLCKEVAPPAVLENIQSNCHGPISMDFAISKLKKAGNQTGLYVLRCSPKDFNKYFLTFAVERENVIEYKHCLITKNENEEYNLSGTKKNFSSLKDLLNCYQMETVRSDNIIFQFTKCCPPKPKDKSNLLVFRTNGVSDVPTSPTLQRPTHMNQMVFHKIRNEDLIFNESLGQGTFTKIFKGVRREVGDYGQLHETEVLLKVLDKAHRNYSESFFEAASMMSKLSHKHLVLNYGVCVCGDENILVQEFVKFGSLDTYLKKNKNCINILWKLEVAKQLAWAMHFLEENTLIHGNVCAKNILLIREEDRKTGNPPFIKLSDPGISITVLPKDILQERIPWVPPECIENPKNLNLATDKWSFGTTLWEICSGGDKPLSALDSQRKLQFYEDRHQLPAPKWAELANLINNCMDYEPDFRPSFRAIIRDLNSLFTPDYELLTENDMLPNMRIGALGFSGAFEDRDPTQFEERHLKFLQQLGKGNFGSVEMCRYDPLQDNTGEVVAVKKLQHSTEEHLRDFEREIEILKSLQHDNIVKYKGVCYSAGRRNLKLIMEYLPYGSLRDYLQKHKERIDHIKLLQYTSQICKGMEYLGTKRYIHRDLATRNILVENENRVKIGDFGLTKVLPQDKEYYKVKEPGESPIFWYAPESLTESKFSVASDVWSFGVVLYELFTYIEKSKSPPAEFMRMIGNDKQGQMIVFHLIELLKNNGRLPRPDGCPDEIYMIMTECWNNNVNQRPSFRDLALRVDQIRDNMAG

SMILES | IC50
Cc1cc(Nc2nc(N3CCN(C(=O)c4ccccc4F)CC3)nn3cccc23)n[nH]1 [2-(4-(2-fluorobenzoyl)-1-piperazinyl)-N-(5-methyl-1H-pyrazol-3-yl)pyrrolo[2,1-f][1,2,4]triazin-4-amine] | ≤ 5 nM
Cc1cc(Nc2nc(N3CCN(C(=O)C(O)c4ccc(Cl)cc4)CC3)nn3cccc23)n[nH]1 (stereo not shown) [1-(4-chlorophenyl)-2-(4-(4-((5-methyl-1H-pyrazol-3-yl)amino)pyrrolo[2,1-f][1,2,4]triazin-2-yl)-1-piperazinyl)-2-oxoethanol] | ≤ 5 nM
Cc1cc(Nc2nc(N3CCN(C(=O)C4(c5ccccc5)CCC4)CC3)nn3cccc23)n[nH]1 [N-(5-methyl-1H-pyrazol-3-yl)-2-(4-((1-phenylcyclobutyl)carbonyl)-1-piperazinyl)pyrrolo[2,1-f][1,2,4]triazin-4-amine] | ≤ 5 nM
Cc1cc(Nc2nc(N3CCN(C(=O)Cc4ccc(OC(F)(F)F)cc4)CC3)nn3cccc23)n[nH]1 [N-(5-methyl-1H-pyrazol-3-yl)-2-(4-((4-(trifluoromethoxy)phenyl)acetyl)-1-piperazinyl)pyrrolo[2,1-f][1,2,4]triazin-4-amine] | ≤ 5 nM
Cc1cc(Nc2nc(N3CCN(C(=O)c4ccccc4OC(F)(F)F)CC3)nn3cccc23)n[nH]1 [N-(5-methyl-1H-pyrazol-3-yl)-2-(4-(2-(trifluoromethoxy)benzoyl)-1-piperazinyl)pyrrolo[2,1-f][1,2,4]triazin-4-amine] | ≤ 5 nM
Cc1cc(Nc2nc(N3CCN(C(=O)c4c(C)cccc4Cl)CC3)nn3cccc23)n[nH]1 [2-(4-(2-chloro-6-methylbenzoyl)-1-piperazinyl)-N-(5-methyl-1H-pyrazol-3-yl)pyrrolo[2,1-f][1,2,4]triazin-4-amine] | ≤ 5 nM
Cc1cc(Nc2nc(N3CCN(C(=O)[C@](C)(O)c4ccc(F)cc4)CC3)nn3cccc23)n[nH]1 [(2R)-2-(4-fluorophenyl)-1-(4-(4-((5-methyl-1H-pyrazol-3-yl)amino)pyrrolo[2,1-f][1,2,4]triazin-2-yl)-1-piperazinyl)-1-oxo-2-propanol] | ≤ 5 nM
Cc1cc(Nc2nc(N3CCN(C(=O)c4ccccc4[N+](=O)[O-])CC3)nn3cccc23)n[nH]1 [N-(5-methyl-1H-pyrazol-3-yl)-2-(4-(2-nitrobenzoyl)-1-piperazinyl)pyrrolo[2,1-f][1,2,4]triazin-4-amine] | ≤ 5 nM
Cc1cc(Nc2nc(N3CCN(C(=O)[C@H](O)CCc4ccccc4)CC3)nn3cccc23)n[nH]1 [(2R)-1-(4-(4-((5-methyl-1H-pyrazol-3-yl)amino)pyrrolo[2,1-f][1,2,4]triazin-2-yl)-1-piperazinyl)-1-oxo-4-phenyl-2-butanol] | ≤ 5 nM
Cc1cc(Nc2nc(N3CCN(C(=O)c4c(F)cccc4Cl)CC3)nn3cccc23)n[nH]1 [2-(4-(2-chloro-6-fluorobenzoyl)-1-piperazinyl)-N-(5-methyl-1H-pyrazol-3-yl)pyrrolo[2,1-f][1,2,4]triazin-4-amine] | ≤ 5 nM
Cc1cc(Nc2nc(N3CCN(C(=O)Cc4ccccc4C#N)CC3)nn3cccc23)n[nH]1 [2-(2-(4-(4-((5-methyl-1H-pyrazol-3-yl)amino)pyrrolo[2,1-f][1,2,4]triazin-2-yl)-1-piperazinyl)-2-oxoethyl)benzonitrile] | ≤ 5 nM
Cc1cc(Nc2nc(N3CCN(C(=O)Cc4c(F)cccc4F)CC3)nn3cccc23)n[nH]1 [2-(4-((2,6-difluorophenyl)acetyl)-1-piperazinyl)-N-(5-methyl-1H-pyrazol-3-yl)pyrrolo[2,1-f][1,2,4]triazin-4-amine] | ≤ 5 nM
Cc1cc(Nc2nc(N3CCN(C(=O)c4cc[nH]n4)CC3)nn3cccc23)n[nH]1 [N-(5-methyl-1H-pyrazol-3-yl)-2-(4-(1H-pyrazol-3-ylcarbonyl)-1-piperazinyl)pyrrolo[2,1-f][1,2,4]triazin-4-amine] | ≤ 5 nM
Cc1cc(Nc2nc(N3CCN(C(=O)Cc4ccc(Cl)cc4F)CC3)nn3cccc23)n[nH]1 [2-(4-((4-chloro-2-fluorophenyl)acetyl)-1-piperazinyl)-N-(5-methyl-1H-pyrazol-3-yl)pyrrolo[2,1-f][1,2,4]triazin-4-amine] | ≤ 5 nM
COc1cccc(F)c1C(=O)N1CCN(c2nc(Nc3cc(C)[nH]n3)c3cccn3n2)CC1 [2-(4-(2-fluoro-6-methoxybenzoyl)-1-piperazinyl)-N-(5-methyl-1H-pyrazol-3-yl)pyrrolo[2,1-f][1,2,4]triazin-4-amine] | ≤ 5 nM
Cc1cc(Nc2nc(N3CCN(C(=O)Cc4cccc(C#N)c4)CC3)nn3cccc23)n[nH]1 [3-(2-(4-(4-((5-methyl-1H-pyrazol-3-yl)amino)pyrrolo[2,1-f][1,2,4]triazin-2-yl)-1-piperazinyl)-2-oxoethyl)benzonitrile] | ≤ 5 nM
Cc1cc(Nc2nc(N3CCN(C(=O)Cc4ccccc4C(F)(F)F)CC3)nn3cccc23)n[nH]1 [N-(5-methyl-1H-pyrazol-3-yl)-2-(4-((2-(trifluoromethyl)phenyl)acetyl)-1-piperazinyl)pyrrolo[2,1-f][1,2,4]triazin-4-amine] | ≤ 5 nM

SMILES | IC50
Cc1cc(Nc2nc(N3CCN(C(=O)c4csnn4)CC3)nn3cccc23)n[nH]1 [N-(5-methyl-1H-pyrazol-3-yl)-2-(4-(1,2,3-thiadiazol-4-ylcarbonyl)-1-piperazinyl)pyrrolo[2,1-f][1,2,4]triazin-4-amine] | ≤ 5 nM
Cc1cc(Nc2nc(N3CCN(C(=O)C4(C)CC4)CC3)nn3cccc23)n[nH]1 [2-(4-((1-methylcyclopropyl)carbonyl)-1-piperazinyl)-N-(5-methyl-1H-pyrazol-3-yl)pyrrolo[2,1-f][1,2,4]triazin-4-amine] | ≤ 5 nM
Cc1cc(Nc2nc(N3CCN(C(=O)c4cnco4)CC3)nn3cccc23)n[nH]1 [N-(5-methyl-1H-pyrazol-3-yl)-2-(4-(1,3-oxazol-5-ylcarbonyl)-1-piperazinyl)pyrrolo[2,1-f][1,2,4]triazin-4-amine] | ≤ 5 nM
Cc1cc(Nc2nc(N3CCN(C(=O)c4ccc(OC(F)(F)F)cc4)CC3)nn3cccc23)n[nH]1 [N-(5-methyl-1H-pyrazol-3-yl)-2-(4-(4-(trifluoromethoxy)benzoyl)-1-piperazinyl)pyrrolo[2,1-f][1,2,4]triazin-4-amine] | ≤ 5 nM
Cc1cc(Nc2nc(N3CCN(C(=O)C(O)c4ccccc4F)CC3)nn3cccc23)n[nH]1 (stereo not shown) [1-(2-fluorophenyl)-2-(4-(4-((5-methyl-1H-pyrazol-3-yl)amino)pyrrolo[2,1-f][1,2,4]triazin-2-yl)-1-piperazinyl)-2-oxoethanol] | ≤ 5 nM
Cc1cc(Nc2nc(N3CCN(C(=O)c4cc(C)oc4C)CC3)nn3cccc23)n[nH]1 [2-(4-(2,5-dimethyl-3-furoyl)-1-piperazinyl)-N-(5-methyl-1H-pyrazol-3-yl)pyrrolo[2,1-f][1,2,4]triazin-4-amine] | ≤ 5 nM
Cc1cc(Nc2nc(N3CCN(C(=O)c4ccc(C(F)(F)F)cc4)CC3)nn3cccc23)n[nH]1 [N-(5-methyl-1H-pyrazol-3-yl)-2-(4-(4-(trifluoromethyl)benzoyl)-1-piperazinyl)pyrrolo[2,1-f][1,2,4]triazin-4-amine] | ≤ 5 nM
Cc1cc(Nc2nc(N3CCN(C(=O)Cc4cccc(Cl)c4)CC3)nn3cccc23)n[nH]1 [2-(4-((3-chlorophenyl)acetyl)-1-piperazinyl)-N-(5-methyl-1H-pyrazol-3-yl)pyrrolo[2,1-f][1,2,4]triazin-4-amine] | ≤ 5 nM
Cc1cc(Nc2nc(N3CCN(C(=O)COCc4ccccc4)CC3)nn3cccc23)n[nH]1 [2-(4-((benzyloxy)acetyl)-1-piperazinyl)-N-(5-methyl-1H-pyrazol-3-yl)pyrrolo[2,1-f][1,2,4]triazin-4-amine] | ≤ 5 nM
Cc1cc(Nc2nc(N3CCN(C(=O)c4ccccc4COc4ccccc4)CC3)nn3cccc23)n[nH]1 [N-(5-methyl-1H-pyrazol-3-yl)-2-(4-(2-(phenoxymethyl)benzoyl)-1-piperazinyl)pyrrolo[2,1-f][1,2,4]triazin-4-amine] | ≤ 5 nM
Cc1cccc(CC(=O)N2CCN(c3nc(Nc4cc(C)[nH]n4)c4cccn4n3)CC2)c1 [2-(4-((3-methylphenyl)acetyl)-1-piperazinyl)-N-(5-methyl-1H-pyrazol-3-yl)pyrrolo[2,1-f][1,2,4]triazin-4-amine] | ≤ 5 nM
Cc1cc(Nc2nc(N3CCN(C(=O)Cc4ccccc4Cl)CC3)nn3cccc23)n[nH]1 [2-(4-((2-chlorophenyl)acetyl)-1-piperazinyl)-N-(5-methyl-1H-pyrazol-3-yl)pyrrolo[2,1-f][1,2,4]triazin-4-amine] | ≤ 5 nM
Cc1cc(Nc2nc(N3CCN(C(=O)c4cnon4)CC3)nn3cccc23)n[nH]1 [N-(5-methyl-1H-pyrazol-3-yl)-2-(4-(1,2,5-oxadiazol-3-ylcarbonyl)-1-piperazinyl)pyrrolo[2,1-f][1,2,4]triazin-4-amine] | ≤ 5 nM
Cc1cc(Nc2nc(N3CCN(C(=O)Cc4c(Cl)cccc4Cl)CC3)nn3cccc23)n[nH]1 [2-(4-((2,6-dichlorophenyl)acetyl)-1-piperazinyl)-N-(5-methyl-1H-pyrazol-3-yl)pyrrolo[2,1-f][1,2,4]triazin-4-amine] | ≤ 5 nM
Cc1ccc(C(=O)N2CCN(c3nc(Nc4cc(C)[nH]n4)c4cccn4n3)CC2)cn1 [N-(5-methyl-1H-pyrazol-3-yl)-2-(4-((6-methyl-3-pyridinyl)carbonyl)-1-piperazinyl)pyrrolo[2,1-f][1,2,4]triazin-4-amine] | ≤ 5 nM
CC(=O)Nc1ccccc1C(=O)N1CCN(c2nc(Nc3cc(C)[nH]n3)c3cccn3n2)CC1 [N-(2-((4-(4-((5-methyl-1H-pyrazol-3-yl)amino)pyrrolo[2,1-f][1,2,4]triazin-2-yl)-1-piperazinyl)carbonyl)phenyl)acetamide] | ≤ 5 nM
CCOc1cc(F)c(CC(=O)N2CCN(c3nc(Nc4cc(C)[nH]n4)c4cccn4n3)CC2)c(F)c1 [2-(4-((4-ethoxy-2,6-difluorophenyl)acetyl)-1-piperazinyl)-N-(5-methyl-1H-pyrazol-3-yl)pyrrolo[2,1-f][1,2,4]triazin-4-amine] | ≤ 5 nM
